The target in test [1] is T1, LuxS (S-ribosylhomocysteinase) (Bacillus subtilis, UniProt O34667).
T1 sequence (O34667 1-157): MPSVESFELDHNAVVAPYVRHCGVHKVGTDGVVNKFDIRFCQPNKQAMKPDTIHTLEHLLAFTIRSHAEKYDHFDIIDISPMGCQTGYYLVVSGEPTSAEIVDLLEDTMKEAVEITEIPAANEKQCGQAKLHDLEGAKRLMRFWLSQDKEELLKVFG
Nature of the test: LuxS activity assay with SRH and DTNB at […] nm. The class given is biochemical.

The target in test [2] is T1, LuxS (S-ribosylhomocysteinase). Nature of the test: LuxS activity assay with SRH and DTNB at […] nm, […] min preincubation. Format: biochemical.

pKi: −log10 of the molar value.

What is called pKi is −log10 of the Ki, conventionally taken in molar units. A higher pKi goes with a low Ki.

`N[C@@H](CCSC[C@H]1NC[C@H](O)[C@@H]1O)C(=O)O` [compound 12, S-(1-Amino-1,4-anhydro-1,5-dideoxy-D-ribitol-5-yl)-L-homocysteine] had a negative-log Ki (pKi) in test [1] of 4.32.

With `N[C@@H](CCSC[C@H]1NC(=O)[C@H](O)[C@@H]1O)C(=O)O` [compound 21, S-(4-Amino-4,5-dideoxy-D-ribono-1,4-lactam-5-yl)-L-homocysteine], the negative logarithm of the Ki (pKi) in test [1] was 4.43. For `N[C@@H](CCSC[C@H]1NC(O)[C@H](O)[C@@H]1O)C(=O)O` (mixture of isomers) [compound 23, S-(4-Amino-4,5-dideoxy-α/β-D-ribofuranos-5-yl)-L-homocysteine], the pKi in test [2] was 5.46.

For the origin of these results see article PMC3171632 (2011).
